Assay results: PubChem BioAssay AID248 (DTP/NCI, 2004)
Where “and” joins values, the source holds several entries; their conditions need not be identical. Equal entries are not always repeated. Inconclusive results and toxic doses are left out.

System: L1210 leukemia ip in BDF1 mice, survival T/C
Test: NCI In Vivo Anticancer Drug Screen. Data for tumor model L1210 Leukemia (intraperitoneal) in B6D2F1 (BDF1) mice
Conditions: endpoint: mean survival time, higher = longer survival
Outline: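 Read-out is survival time, reported as the treated-group measurement over the vehicle-control measurement.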

[1] = dose: 25.0 mg/kg/injection, schedule: Q01DX009 (ip), vehicle: Klucel (hydroxypropylcellulose) (HPC)
[2] = dose: 50.0 mg/kg/injection, schedule: Q01DX009 (ip), vehicle: Klucel (hydroxypropylcellulose) (HPC)
[3] = dose: 100.0 mg/kg/injection, schedule: Q01DX001 (ip), vehicle: Klucel (hydroxypropylcellulose) (HPC)
[4] = dose: 100.0 mg/kg/injection, schedule: Q04DX003 (ip), vehicle: Klucel (hydroxypropylcellulose) (HPC)
[5] = dose: 200.0 mg/kg/injection, schedule: Q01DX001 (ip), vehicle: Klucel (hydroxypropylcellulose) (HPC)
[6] = dose: 200.0 mg/kg/injection, schedule: Q04DX003 (ip), vehicle: Klucel (hydroxypropylcellulose) (HPC)
[7] = dose: 400.0 mg/kg/injection, schedule: Q01DX001 (ip), vehicle: Klucel (hydroxypropylcellulose) (HPC)
[8] = dose: 25.0 mg/kg/injection, schedule: Q04DX003 (ip), vehicle: saline with Tween-80
[9] = dose: 50.0 mg/kg/injection, schedule: Q04DX003 (ip), vehicle: saline with Tween-80
[10] = dose: 100.0 mg/kg/injection, schedule: Q04DX003 (ip), vehicle: saline with Tween-80
[11] = dose: 200.0 mg/kg/injection, schedule: Q04DX003 (ip), vehicle: saline with Tween-80
[12] = dose: 400.0 mg/kg/injection, schedule: Q04DX003 (ip), vehicle: saline with Tween-80
[13] = dose: 400.0 mg/kg/injection, schedule: Q04DX003 (ip), vehicle: Klucel (hydroxypropylcellulose) (HPC)
[14] = dose: 100.0 mg/kg/injection, schedule: Q01DX009 (ip), vehicle: Klucel (hydroxypropylcellulose) (HPC)
[15] = dose: 200.0 mg/kg/injection, schedule: Q01DX009 (ip), vehicle: Klucel (hydroxypropylcellulose) (HPC)
[16] = dose: 400.0 mg/kg/injection, schedule: Q01DX009 (ip), vehicle: Klucel (hydroxypropylcellulose) (HPC)
[17] = dose: 100.0 mg/kg/injection, schedule: Q04DX002 (ip), vehicle: Klucel (hydroxypropylcellulose) (HPC)
[18] = dose: 400.0 mg/kg/injection, schedule: Q04DX002 (ip), vehicle: Klucel (hydroxypropylcellulose) (HPC)
[19] = dose: 20.0 mg/kg/injection, schedule: Q04DX003 (ip), vehicle: Klucel (hydroxypropylcellulose) (HPC)
[20] = dose: 40.0 mg/kg/injection, schedule: Q04DX003 (ip), vehicle: Klucel (hydroxypropylcellulose) (HPC)
[21] = dose: 80.0 mg/kg/injection, schedule: Q04DX003 (ip), vehicle: Klucel (hydroxypropylcellulose) (HPC)

For `CC(Cc1ccccc1)NC(=O)NCCCl` (stereo not drawn), the T/C (dose: 12.5 mg/kg/injection, schedule: Q01DX009 (ip), vehicle: Klucel (hydroxypropylcellulose) (HPC)) was 101 % of control, the T/C [1] was 101 % of control and the T/C [2] was 90 % of control. For the same compound, the T/C [3] was 92 % of control, the T/C [4] was 106 % of control and the T/C [5] was 90 % of control. For the same compound, the T/C [6] was 117 % of control and the T/C [7] was 94 % of control.

In the case of `Clc1nc(SC2=NCCN2)c2[nH]cnc2n1`, the T/C (dose: 10.0 mg/kg/injection, schedule: Q01DX009 (ip), vehicle: saline with Tween-80) was 108 % of control, the T/C (dose: 12.5 mg/kg/injection, schedule: Q01DX009 (ip), vehicle: saline with Tween-80) was 102 % of control and the T/C (dose: 12.5 mg/kg/injection, schedule: Q04DX003 (ip), vehicle: saline with Tween-80) was 106 % of control. For the same compound, the T/C (dose: 20.0 mg/kg/injection, schedule: Q01DX009 (ip), vehicle: saline with Tween-80) was 101 % of control, the T/C (dose: 25.0 mg/kg/injection, schedule: Q01DX009 (ip), vehicle: saline with Tween-80) was 104 % of control and the T/C [8] was 106 % of control. For the same compound, the T/C (dose: 40.0 mg/kg/injection, schedule: Q01DX009 (ip), vehicle: saline with Tween-80) was 100 % of control, the T/C (dose: 50.0 mg/kg/injection, schedule: Q01DX009 (ip), vehicle: saline with Tween-80) was 113 % of control and the T/C [9] was 107 % of control.

For `CC1=NC(=NC(=O)c2ccccc2)N=C1`, the T/C [10] was 97 % of control, the T/C [11] was 96 % of control and the T/C [12] was 96 % of control.

For `BrC[P+](c1ccccc1)(c1ccccc1)c1ccccc1`, the T/C (dose: 3.12 mg/kg/injection, schedule: Q04DX002 (ip), vehicle: saline) was 108 % of control, the T/C (dose: 6.25 mg/kg/injection, schedule: Q04DX002 (ip), vehicle: saline) was 104 % of control and the T/C (dose: 12.5 mg/kg/injection, schedule: Q04DX002 (ip), vehicle: saline) was 105 % of control and 112 % of control.

With `Cc1ccc(Nc2ccc(Nc3ccc(C)cc3)c3c2C(=O)c2c(O)ccc(O)c2C3=O)cc1` the T/C [5] was 90 % of control and the T/C [7] was 97 % of control.

`C#CC(C)ON1C(=O)c2ccccc2C1=O` (stereo not drawn) was tested, and the T/C (dose: 100.0 mg/kg/injection, schedule: Q01DX009 (ip), vehicle: saline sonified) was 96 % of control, the T/C [10] was 115 % of control and the T/C (dose: 200.0 mg/kg/injection, schedule: Q01DX009 (ip), vehicle: saline sonified) was 97 % of control. The T/C [11] was 114 % of control, the T/C (dose: 400.0 mg/kg/injection, schedule: Q01DX009 (ip), vehicle: saline sonified) was 104 % of control and the T/C [12] was 109 % of control.

In the case of `OCc1ccc(OCc2ccccc2)c(OCc2ccccc2)c1`, the T/C (dose: 100.0 mg/kg/injection, schedule: Q01DX009 (ip), vehicle: other) was 87 % of control, the T/C (dose: 100.0 mg/kg/injection, schedule: Q04DX003 (ip), vehicle: other) was 94 % of control and the T/C (dose: 200.0 mg/kg/injection, schedule: Q04DX003 (ip), vehicle: other) was 98 % of control. The T/C (dose: 400.0 mg/kg/injection, schedule: Q04DX003 (ip), vehicle: other) was 90 % of control.

For `CCOC(=O)c1cnc(SC)nc1NN=C(C)C`, the T/C [4] was 92 % of control, the T/C [6] was 95 % of control and the T/C [13] was 93 % of control.

With `Cc1cccc(Cl)c1NC(=O)c1ccc(C(=O)Nc2c(C)cccc2Cl)cc1` the T/C [14] was 87 % of control, the T/C [15] was 94 % of control and the T/C [16] was 94 % of control.

With `CC1CNC2C(C)C3C(CC4C5CCC6CC(N=Cc7ccccc7)C(O)CC6(C)C5CCC43C)OC2(O)C1` (stereo not drawn) the T/C [3] was 87 % of control and the T/C [7] was 91 % of control.

With `N#CC(NC(=O)NCCO)c1ccccc1` (stereo not drawn) the T/C [10] was 107 % of control, the T/C [11] was 96 % of control and the T/C [12] was 101 % of control.

In the case of `O=C(CCl)Nc1ccc([As](=O)(O)O)cc1`, the T/C [1] was 98 % of control, the T/C [2] was 91 % of control and the T/C (dose: 50.0 mg/kg/injection, schedule: Q04DX003 (ip), vehicle: Klucel (hydroxypropylcellulose) (HPC)) was 94 % of control. The T/C [4] was 97 % of control.

`Cc1c(Cl)cccc1NC(=O)Nc1ccccc1F` was tested, and the T/C [14] was 91 % of control, the T/C [17] was 97 % of control and the T/C [15] was 106 % of control. The T/C (dose: 200.0 mg/kg/injection, schedule: Q04DX002 (ip), vehicle: Klucel (hydroxypropylcellulose) (HPC)) was 97 % of control, the T/C [16] was 96 % of control and the T/C [18] was 94 % of control.

`CON1C(=O)C2(CCCCC2)C2=NOC3C(Br)CCCC231` (stereo not drawn) was tested, and the T/C (dose: 100.0 mg/kg/injection, schedule: Q01DX001 (ip), vehicle: saline with Tween-80) was 92 % of control, the T/C [10] was 106 % of control and the T/C (dose: 200.0 mg/kg/injection, schedule: Q01DX001 (ip), vehicle: saline with Tween-80) was 95 % of control. The T/C [11] was 97 % of control, the T/C (dose: 400.0 mg/kg/injection, schedule: Q01DX001 (ip), vehicle: saline with Tween-80) was 95 % of control and the T/C [12] was 95 % of control.

`CC(=O)Nc1ccc(Oc2ccc(NC(C)=O)cc2)cc1` was tested, and the T/C (dose: 25.0 mg/kg/injection, schedule: Q04DX002 (ip), vehicle: saline) was 90 % of control, the T/C (dose: 50.0 mg/kg/injection, schedule: Q04DX002 (ip), vehicle: saline) was 97 % of control and the T/C (dose: 100.0 mg/kg/injection, schedule: Q04DX002 (ip), vehicle: saline) was 117 % of control.

`O=[N+]([O-])c1ccc2c(c1)-c1ccccc1C1=NCCN12` was tested, and the T/C [19] was 91 % of control, the T/C [1] was 105 % of control and the T/C [20] was 96 % of control. The T/C [2] was 102 % of control, the T/C [21] was 102 % of control and the T/C [14] was 105 % of control. The T/C [4] was 101 % of control.

`O=[N+]([O-])c1ccc(N/N=C/c2ccccn2)cc1` was tested, and the T/C [14] was 87 % of control, the T/C [15] was 95 % of control and the T/C [16] was 97 % of control.

For `CCOC(=O)c1cnc(NN)nc1Nc1ccccc1Cl`, the T/C [10] was 92 % of control and the T/C [11] was 96 % of control.

With `C[N+](C)(CC(=O)Nc1cc(C(F)(F)F)cc(C(F)(F)F)c1)CC(=O)Nc1ccc(Cl)c(C(F)(F)F)c1` the T/C (dose: 6.25 mg/kg/injection, schedule: Q04DX002 (ip), vehicle: saline with Tween-80) was 93 % of control, the T/C (dose: 12.5 mg/kg/injection, schedule: Q04DX002 (ip), vehicle: saline with Tween-80) was 93 % of control and the T/C (dose: 25.0 mg/kg/injection, schedule: Q04DX002 (ip), vehicle: saline with Tween-80) was 100 % of control and 91 % of control.

With `O=C1CSC(=S)N1c1cccc(C(F)(F)F)c1` the T/C [10] was 108 % of control, the T/C [11] was 101 % of control and the T/C [12] was 104 % of control.

In the case of `CCOC(=O)c1cc2c(=O)c(C(=O)OCC)c[nH]c2o1`, the T/C [17] was 104 % of control and the T/C [18] was 104 % of control.

For `O=C(O)c1ccc(N=Cc2ccc([N+](=O)[O-])s2)cc1`, the T/C [8] was 94 % of control, the T/C [9] was 100 % of control and the T/C [4] was 103 % of control. For the same compound, the T/C [10] was 102 % of control.

In the case of `CCOC(=O)Nc1cc(N)cc(NC(=O)OCC)c1`, the T/C [2] was 101 % of control, the T/C [14] was 104 % of control and the T/C [15] was 106 % of control.

For `NS(=O)(=O)c1cccc([N+](=O)[O-])c1`, the T/C [19] was 104 % of control, the T/C [1] was 107 % of control and the T/C [20] was 98 % of control. For the same compound, the T/C [2] was 100 % of control, the T/C [21] was 107 % of control and the T/C [14] was 96 % of control. For the same compound, the T/C [4] was 96 % of control.

`BrC1CCC(Br)C(Br)CCC1Br` (stereo not drawn) was tested, and the T/C [3] was 101 % of control, the T/C [14] was 104 % of control and the T/C [5] was 97 % of control. The T/C [15] was 97 % of control, the T/C [7] was 95 % of control and the T/C [16] was 90 % of control.

With `CNC(=O)Nc1ccc(OC)cc1OC` the T/C [14] was 105 % of control, the T/C [4] was 106 % of control and the T/C [15] was 94 % of control. The T/C [6] was 111 % of control, the T/C [16] was 98 % of control and the T/C [13] was 103 % of control.

In the case of `Cc1c(Br)c(=O)n(-c2ccccc2)n1C`, the T/C [2] was 94 % of control, the T/C [14] was 98 % of control and the T/C [4] was 101 % of control. For the same compound, the T/C [15] was 100 % of control and the T/C [6] was 100 % of control.

With `COc1ccc(OP(=O)(N2CC2)N2CC2)cc1` the T/C (dose: 75.0 mg/kg/injection, schedule: Q01DX Z (ip), vehicle: carboxymethylcellulose (CMC)) was 120 % of control and the T/C (dose: 300.0 mg/kg/injection, schedule: Q01DX Z (ip), vehicle: carboxymethylcellulose (CMC)) was 160 % of control.
